Results as given in patent US11173151B2, “Substituted triazole derivatives and uses thereof” (BAYER AKTIENGESELLSCHAFT, priority 2017, dated 2021).

What was measured:
human V1a receptor = target: T1, human V1a receptor (Homo sapiens, UniProt P37288); assay: Cellular in vitro assay for determining vasopressin receptor activity, V1a receptor cell line (CHO, aequorin luminescence); format: cell-based; conditions: for IC50: CHO cell line transfected with human V1a receptor, [Arg]-vasopressin at EC50 concentration, read-out: IC50 hV1a; for ratio IC50 hV2/hV1a: selectivity ratio IC50 hV2 / IC50 hV1a
T1 construct: expressed in transfected cells; host or cells: CHO K1 (ATCC), also stably transfected with a modified aequorin
T1 sequence (P37288 whole entry): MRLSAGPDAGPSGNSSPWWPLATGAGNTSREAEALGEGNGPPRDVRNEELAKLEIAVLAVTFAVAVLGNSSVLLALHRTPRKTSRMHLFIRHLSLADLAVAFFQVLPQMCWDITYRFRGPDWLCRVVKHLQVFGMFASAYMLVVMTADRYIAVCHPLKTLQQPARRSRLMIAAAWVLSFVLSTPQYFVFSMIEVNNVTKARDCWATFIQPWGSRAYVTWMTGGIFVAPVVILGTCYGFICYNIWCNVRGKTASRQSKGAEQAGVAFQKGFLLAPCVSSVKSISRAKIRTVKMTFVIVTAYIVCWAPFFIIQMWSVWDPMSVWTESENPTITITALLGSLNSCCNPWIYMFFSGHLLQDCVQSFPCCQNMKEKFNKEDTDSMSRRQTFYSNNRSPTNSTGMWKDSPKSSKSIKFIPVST
Outline: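 Luminescence from reconstituted aequorin, reporting intracellular calcium release, was measured immediately after adding [Arg]-vasopressin at EC50 concentration to CHO K1 cells pretreated 10 minutes with graded compound concentrations. Inhibition gave IC50 values.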

human V2 receptor = target: T2, human V2 receptor (Homo sapiens, UniProt P30518); assay: Cellular in vitro assay for determining vasopressin receptor activity, V2 receptor cell line (CHO, CRE-luciferase); format: cell-based; conditions: CHO cell line transfected with human V2 receptor; [Arg8]-vasopressin at EC50 concentration; read-out: IC50 hV2
T2 construct: expressed in transfected cells; host or cells: CHO K1 (ATCC) expressing firefly luciferase under a CRE-responsive promoter
T2 sequence (P30518 whole entry): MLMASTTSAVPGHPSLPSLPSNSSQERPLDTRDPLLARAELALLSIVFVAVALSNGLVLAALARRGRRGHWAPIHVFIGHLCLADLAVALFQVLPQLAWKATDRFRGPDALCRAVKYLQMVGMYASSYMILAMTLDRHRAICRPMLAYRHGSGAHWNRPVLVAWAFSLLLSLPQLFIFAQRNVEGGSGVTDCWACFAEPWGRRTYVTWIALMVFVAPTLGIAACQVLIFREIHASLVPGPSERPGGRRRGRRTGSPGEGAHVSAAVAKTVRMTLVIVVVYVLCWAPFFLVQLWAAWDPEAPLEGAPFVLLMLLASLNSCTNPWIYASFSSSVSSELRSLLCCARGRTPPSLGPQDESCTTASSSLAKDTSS

SMILES | IC50 (human V1a receptor) [nM] | ratio IC50 hV2/hV1a (human V1a receptor) | IC50 (human V2 receptor) [µM]
O=C(NC1CC1)c1cccnc1-n1nc(Cn2nc(-c3ccc(Cl)cc3)n(C[C@H](O)C(F)(F)F)c2=O)nc1C(=O)N1CCS(=O)(=O)CC1 [Example 530, 2-{3-({3-(4-Chlorophenyl)-5-oxo-4-[(2S)-3,3,3-trifluoro-2-hydroxypropyl]-4,5-dihydro-1H-1,2,4-triazol-1-yl}methyl)-5-[(1,1-dioxidothiomorpholin-4-yl)carbonyl]-1H-1,2,4-triazol-1-yl}-N-cyclopropylpyridine-3-carboxamide] | 530 | 9.9 | 5.25
CC1(NC(=O)c2cccnc2-n2nc(Cn3nc(-c4ccc(Cl)cc4)n(C[C@H](O)C(F)(F)F)c3=O)nc2C(=O)N2CCS(=O)(=O)CC2)CC1 [Example 531, 2-{3-({3-(4-Chlorophenyl)-5-oxo-4-[(2S)-3,3,3-trifluoro-2-hydroxypropyl]-4,5-dihydro-1H-1,2,4-triazol-1-yl}methyl)-5-[(1,1-dioxidothiomorpholin-4-yl)carbonyl]-1H-1,2,4-triazol-1-yl}-N-(1-methylcyclopropyl)pyridine-3-carboxamide] | 96.5 | 29.5 | 2.85
CC(C)(N)CNC(=O)c1nc(Cn2nc(-c3ccc(Cl)cc3)n(C[C@H](O)C(F)(F)F)c2=O)nn1-c1cnccc1C(=O)NCC(F)(F)F [Example 534, 3-{5-[(2-Amino-2-methylpropyl)carbamoyl]-3-({3-(4-chlorophenyl)-5-oxo-4-[(2S)-3,3,3-trifluoro-2-hydroxypropyl]-4,5-dihydro-1H-1,2,4-triazol-1-yl}methyl)-1H-1,2,4-triazol-1-yl}-N-(2,2,2-trifluoroethyl)pyridine-4-carboxamide] | 180 | 20.1 | 3.62
